pIC50, pKi: −log10 of the molar value.
Key:
[1] = molecular target: 5-hydroxytryptamine receptor 6 (Homo sapiens, UniProt P50406); format: cell membranes, HeLa, Membrane; conditions: for pIC50: read-out: IC50; for pKi: read-out: Ki; for all read-outs here: in other assays of this panel Not Active means under 50% inhibition at 10 µM
Adenosine receptor A2a = Adenosine receptor A2a (Homo sapiens, UniProt P29274); assay: DRUGMATRIX: Adenosine A2A radioligand binding (ligand: […]); format: cell membranes, HEK293, Membrane; conditions: Not Active = under 50% inhibition at 10 µM
Adenosine receptor A2a, sequence (P29274 whole entry): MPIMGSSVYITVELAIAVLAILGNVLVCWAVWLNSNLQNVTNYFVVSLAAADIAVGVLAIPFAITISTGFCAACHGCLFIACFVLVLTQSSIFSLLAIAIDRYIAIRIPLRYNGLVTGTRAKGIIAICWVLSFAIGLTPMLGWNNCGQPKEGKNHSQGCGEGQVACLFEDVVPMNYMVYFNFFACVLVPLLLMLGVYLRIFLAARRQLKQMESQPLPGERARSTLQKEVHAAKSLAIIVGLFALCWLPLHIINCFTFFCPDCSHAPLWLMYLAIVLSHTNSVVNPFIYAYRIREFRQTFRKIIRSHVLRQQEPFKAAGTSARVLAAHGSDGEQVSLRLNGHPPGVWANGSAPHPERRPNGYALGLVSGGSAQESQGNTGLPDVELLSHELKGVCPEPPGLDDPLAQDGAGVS

Calcitonin receptor = molecular target: T1, Calcitonin receptor (Homo sapiens, UniProt P30988); format: cell membranes, Membrane; conditions: t47d; note: in other assays of this panel Not Active means under 50% inhibition at 10 µM
T1 sequence (P30988 whole entry): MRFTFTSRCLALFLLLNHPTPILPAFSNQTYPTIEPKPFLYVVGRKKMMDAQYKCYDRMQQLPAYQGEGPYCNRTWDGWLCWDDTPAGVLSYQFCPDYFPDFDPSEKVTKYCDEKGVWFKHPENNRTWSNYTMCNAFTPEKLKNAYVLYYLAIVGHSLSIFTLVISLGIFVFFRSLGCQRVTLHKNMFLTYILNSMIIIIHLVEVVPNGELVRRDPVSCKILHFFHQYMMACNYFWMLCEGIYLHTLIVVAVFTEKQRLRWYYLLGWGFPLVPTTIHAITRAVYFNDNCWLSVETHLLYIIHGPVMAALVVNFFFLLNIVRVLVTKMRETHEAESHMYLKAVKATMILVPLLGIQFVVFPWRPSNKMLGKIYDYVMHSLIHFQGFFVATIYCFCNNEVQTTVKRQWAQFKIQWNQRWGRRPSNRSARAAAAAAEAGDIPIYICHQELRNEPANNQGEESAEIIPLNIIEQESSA

Substance-K receptor = molecular target: T2, Substance-K receptor (Homo sapiens, UniProt P21452); format: cell membranes, CHO, Membrane; note: in other assays of this panel Not Active means under 50% inhibition at 10 µM
T2 sequence (P21452 whole entry): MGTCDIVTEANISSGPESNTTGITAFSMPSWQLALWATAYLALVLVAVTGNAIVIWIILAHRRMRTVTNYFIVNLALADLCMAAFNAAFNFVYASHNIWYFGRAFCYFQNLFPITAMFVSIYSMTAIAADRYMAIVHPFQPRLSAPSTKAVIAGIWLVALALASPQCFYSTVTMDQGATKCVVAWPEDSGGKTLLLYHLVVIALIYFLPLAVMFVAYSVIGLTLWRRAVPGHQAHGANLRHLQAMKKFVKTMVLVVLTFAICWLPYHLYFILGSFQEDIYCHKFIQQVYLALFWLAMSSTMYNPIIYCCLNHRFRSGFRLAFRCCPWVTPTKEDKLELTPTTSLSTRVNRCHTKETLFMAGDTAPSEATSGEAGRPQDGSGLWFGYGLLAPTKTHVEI

Progesterone receptor = molecular target: T3, Progesterone receptor (Bos taurus, UniProt Q690N0); assay: DRUGMATRIX: Progesterone radioligand binding (ligand: [3H] R-5020); format: tissue-based, Uterus; conditions: Not Active = under 50% inhibition at 10 µM
T3 sequence (Q690N0 whole entry): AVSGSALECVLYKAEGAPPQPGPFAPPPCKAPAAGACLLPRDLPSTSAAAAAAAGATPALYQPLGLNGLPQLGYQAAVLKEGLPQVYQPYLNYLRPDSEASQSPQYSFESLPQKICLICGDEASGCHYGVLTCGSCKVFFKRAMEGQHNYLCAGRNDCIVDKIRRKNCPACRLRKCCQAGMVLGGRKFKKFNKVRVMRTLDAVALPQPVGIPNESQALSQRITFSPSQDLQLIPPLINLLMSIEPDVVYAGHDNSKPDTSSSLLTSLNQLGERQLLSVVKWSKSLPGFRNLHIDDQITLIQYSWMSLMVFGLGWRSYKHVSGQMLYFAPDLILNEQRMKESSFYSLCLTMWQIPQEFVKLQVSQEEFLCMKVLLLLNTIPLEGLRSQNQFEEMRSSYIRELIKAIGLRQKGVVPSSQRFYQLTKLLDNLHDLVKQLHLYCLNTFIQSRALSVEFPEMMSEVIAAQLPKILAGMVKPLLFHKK

5-hydroxytryptamine receptor 6, sequence (P50406 whole entry): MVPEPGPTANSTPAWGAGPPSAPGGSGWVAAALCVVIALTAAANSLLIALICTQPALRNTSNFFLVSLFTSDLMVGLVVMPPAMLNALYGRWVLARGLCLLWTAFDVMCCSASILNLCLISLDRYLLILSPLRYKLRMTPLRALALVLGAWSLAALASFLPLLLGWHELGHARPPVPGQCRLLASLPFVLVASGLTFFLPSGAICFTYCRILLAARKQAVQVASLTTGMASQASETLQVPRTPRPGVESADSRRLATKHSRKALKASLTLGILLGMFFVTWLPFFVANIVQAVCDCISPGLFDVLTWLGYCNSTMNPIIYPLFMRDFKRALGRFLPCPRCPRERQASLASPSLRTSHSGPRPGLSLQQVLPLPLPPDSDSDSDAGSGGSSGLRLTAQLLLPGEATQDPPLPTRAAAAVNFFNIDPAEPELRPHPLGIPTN

Compound | IC50 ([1]; hela) | IC50 (Adenosine receptor A2a; hek293) | IC50 (Calcitonin receptor) | IC50 (Substance-K receptor; cho) | IC50 (Progesterone receptor) | other results
CC(C)(C#N)c1cc(Cn2cncn2)cc(C(C)(C)C#N)c1 [ANASTROZOLE] | Not Active | Not Active | Not Active | Not Active | Not Active | –
CC12CCC(CC1=O)C2(C)C (stereo unspecified) [CAMPHOR] | Not Active | Not Active | Not Active | Not Active | Not Active | –
CC12CCC(CC1)C(C)(C)O2 [EUCALYPTOL] | Not Active | Not Active | Not Active | Not Active | Not Active | –
Cc1ccnc2c1NC(=O)c1cccnc1N2C1CC1 [NEVIRAPINE] | Not Active | Not Active | Not Active | Not Active | Not Active | –
Clc1cc(Cl)c(OCC#CI)cc1Cl [HALOPROGIN] | – | Not Active | Not Active | – | Not Active | pIC50 [1]: 5.40; pKi [1]: 5.73; pIC50 (Substance-K receptor; read-out: IC50): 5.83; pKi (Substance-K receptor; read-out: Ki): 6.31
Oc1ccccc1 [PHENOL] | Not Active | Not Active | Not Active | Not Active | – | –
CCCCCCNC(=O)n1cc(F)c(=O)[nH]c1=O [CARMOFUR] | Not Active | Not Active | Not Active | Not Active | Not Active | –
Nc1ccc(C(=O)O)c(O)c1 [AMINOSALICYLIC ACID] | Not Active | Not Active | Not Active | Not Active | Not Active | –
COc1cc(NC(C)CCCN)c2ncccc2c1 (stereo unspecified) [PRIMAQUINE] | Not Active | Not Active | Not Active | Not Active | Not Active | –
Cc1cc(C(C)(C)C)c(O)c(C)c1CC1=NCCN1 [OXYMETAZOLINE] | – | Not Active | Not Active | Not Active | Not Active | pIC50 [1]: 5.78; pKi [1]: 6.11
O=c1[nH]cnc2c1ncn2[C@H]1CC[C@@H](CO)O1 [DIDANOSINE] | Not Active | Not Active | Not Active | Not Active | Not Active | –
CC(=O)[C@]1(O)Cc2c(O)c3c(c(O)c2[C@@H](O[C@H]2C[C@H](N)[C@H](O)[C@H](C)O2)C1)C(=O)c1ccccc1C3=O [IDARUBICIN] | Not Active | Not Active | Not Active | Not Active | Not Active | –
COC(=O)Nc1nc2ccc(Sc3ccccc3)cc2[nH]1 [FENBENDAZOLE] | Not Active | Not Active | Not Active | Not Active | Not Active | –
CC(C)(c1ccc(O)cc1)c1ccc(O)cc1 [BISPHENOL A] | – | Not Active | Not Active | Not Active | Not Active | pIC50 [1]: 5.27; pKi [1]: 5.60
C=C(Cl)Cl [1,1-DICHLOROETHENE] | Not Active | Not Active | Not Active | Not Active | Not Active | –
O=C(O)CCc1nc(-c2ccccc2)c(-c2ccccc2)o1 [OXAPROZIN] | Not Active | Not Active | Not Active | Not Active | Not Active | –
NCC(CC(=O)O)c1ccc(Cl)cc1 (stereo unspecified) [BACLOFEN] | Not Active | Not Active | Not Active | Not Active | Not Active | –

Compound | IC50 ([1]; hela) | IC50 (Adenosine receptor A2a; hek293) | IC50 (Calcitonin receptor) | IC50 (Substance-K receptor; cho) | IC50 (Progesterone receptor) | other results
CC[C@H]1OC(=O)[C@H](C)[C@@H](O[C@H]2C[C@@](C)(OC)[C@@H](O)[C@H](C)O2)[C@H](C)[C@@H](O[C@@H]2O[C@H](C)C[C@H](N(C)C)[C@H]2O)[C@](C)(O)C[C@@H](C)C(=O)[C@H](C)[C@@H](O)[C@]1(C)O [ERYTHROMYCIN] | Not Active | Not Active | Not Active | Not Active | Not Active | –
C=CCO [ALLYL ALCOHOL] | Not Active | Not Active | Not Active | Not Active | Not Active | –
COC(=O)C[C@](O)(CCC(C)(C)O)C(=O)O[C@@H]1C(OC)=C[C@]23CCCN2CCc2cc4c(cc2[C@H]13)OCO4 [HARRINGTONINE] | Not Active | Not Active | Not Active | Not Active | Not Active | –
CHROMIC CHLORIDE | Not Active | Not Active | Not Active | Not Active | Not Active | Ki ([1]; hela): Not Active; Ki (Adenosine receptor A2a; hek293): Not Active; Ki (Calcitonin receptor): Not Active; Ki (Substance-K receptor; cho): Not Active; Ki (Progesterone receptor): Not Active
C#C[C@]1(O)CC[C@H]2[C@@H]3CCC4=CC(=O)CC[C@@H]4[C@H]3CC[C@@]21C [NORETHINDRONE] | Not Active | Not Active | Not Active | Not Active | – | pIC50 (Progesterone receptor; read-out: IC50): 8.03; pKi (Progesterone receptor; read-out: Ki): 8.91
O=C1CN(/N=C/c2ccc([N+](=O)[O-])o2)C(=O)N1 [NITROFURANTOIN] | Not Active | Not Active | Not Active | Not Active | Not Active | –
c1ccc2c(c1)Nc1ccccc1S2 [PHENOTHIAZINE] | Not Active | Not Active | Not Active | Not Active | Not Active | –
CC(CN1c2ccccc2Sc2ccccc21)N(C)C (stereo unspecified) [PROMETHAZINE] | – | Not Active | Not Active | Not Active | Not Active | pIC50 [1]: 5.61; pKi [1]: 5.95
c1ccc(Cn2ccnc2)cc1 | Not Active | Not Active | Not Active | Not Active | Not Active | –
CC(C)Cn1cnc2c(N)nc3ccccc3c21 [IMIQUIMOD] | Not Active | – | Not Active | Not Active | Not Active | pIC50 (Adenosine receptor A2a; read-out: IC50): 5.27; pKi (Adenosine receptor A2a; read-out: Ki): 5.52
OC[C@H]1OC2C3[C@@H](CO)OC(O[C@H]4[C@H](O)[C@@H](O)[C@@H](O[C@H]5[C@H](O)[C@@H](O)[C@@H](O[C@H]6[C@H](O)[C@@H](O)[C@@H](O[C@H]7[C@H](O)[C@@H](O)[C@@H](O[C@H]8[C@H](O)[C@@H](O)[C@@H](O[C@H]9[C@H](O)[C@@H](O)C(OC1[C@H](O)[C@H]2O)O[C@@H]9CO)O[C@@H]8CO)O[C@@H]7CO)O[C@@H]6CO)O[C@@H]5CO)O[C@@H]4CO)[C@H](O)[C@H]3O | Not Active | Not Active | Not Active | Not Active | Not Active | –
COc1cc(/C=C/C(=O)O)ccc1O [FERULATE] | Not Active | Not Active | Not Active | Not Active | Not Active | –
CCN1C[C@]2(COC)[C@H](O)C[C@H](OC)[C@@]34[C@@H]5C[C@@]6(O)[C@H](OC(=O)c7ccccc7)[C@@H]5[C@@](OC(C)=O)([C@@H]([C@H](OC)[C@H]23)[C@@H]14)[C@@H](O)[C@@H]6OC [ACONITINE] | Not Active | Not Active | Not Active | Not Active | Not Active | –
CO[C@H]1O[C@@H]2O[C@@]3(C)CC[C@H]4[C@H](C)CC[C@@H]([C@H]1C)[C@@]24OO3 | Not Active | Not Active | Not Active | Not Active | Not Active | –
C[C@@H]1[C@H](O)[C@@H](C)/C=C/C=C/C=C/C=C/C=C/C=C/C=C/[C@H](O[C@@H]2O[C@H](C)[C@@H](O)[C@H](N)[C@@H]2O)C[C@@H]2O[C@](O)(C[C@@H](O)C[C@@H](O)[C@H](O)CC[C@@H](O)C[C@@H](O)CC(=O)O[C@H]1C)C[C@H](O)[C@H]2C(=O)O [AMPHOTERICIN B] | Not Active | Not Active | Not Active | Not Active | Not Active | –
Oc1ncnc2[nH]ncc12 [ALLOPURINOL] | Not Active | Not Active | Not Active | Not Active | Not Active | –

Reference: ChEMBL document CHEMBL1909046, “DrugMatrix in vitro pharmacology data”
